Measured values published in patent US20020150629A1, “Zinc-supplementary compositions for oral administration” (priority 2000, published 2002).

Test: Bioavailability of zinc after administration to the duodenum of rats (plasma zinc AUC vs intravenous zinc acetate)
Conditions: for absorption promoting action (in words): 10 mg/kg
Method: Wistar rats of 8 weeks age were used in this experiment. The rats were fasted for 24 hours before administration of zinc acetate alone, a mixture of zinc acetate and a dipeptide listed in Table 1 at a molar ratio of dipeptide to zinc of 1:1, or a complex of zinc and L- or D-carnosine at a molar ratio of dipeptide to complex of 1:1. Each test composition was administered to the duodenum of ether-anesthetized rat as a solution or suspension in physiological saline. The dose of the composition was 10 mg/kg body weight as zinc in each case. Blood samples were collected before administration, and 1,3,5 and 7 hours after the administration. Plasma levels of zinc were determined using Zn Test Wako Kit (available from Wako Pure Chemical Industries, Ltd.). […] The bioavailability (BA) of zinc was calculated by the above comparison.
Using the same method as above, the bioavailability of zinc was determined at varying molar ratios of L-carnosine to zinc from zero to 30. The results are shown in FIG. 1 of the accompanying drawings.
The dose of a 1:1 molar mixture of L-carnosine and zinc acetate was varied from 3 mg/kg to 100 mg/kg in terms of zinc. Analogous to Part 1, AUCs and bioavalabilities were determined and compared with those of administration of zinc acetate alone. The results are shown in FIG. 2 of the accompanying drawing.

Row | Molecule | absorption promoting action (in words) (rat, in vivo) | BA (%) bioavailability of zinc (rat, in vivo) [%] | other results
1 | NCCC(=O)N[C@H](Cc1cnc[nH]1)C(=O)O [D-carnosine] | not | – | –
2 | NCCC(=O)N[C@@H](Cc1cnc[nH]1)C(=O)O [L-carnosine, N-β-alanyl-L-histidine] | exhibited a similar absorption promoting action | – | bioavailability of zinc at varying molar ratios of L-carnosine to zinc (FIG. 1) (rat, in vivo): increased with increase in the molar ratio
3 | CC(=O)[O-].CC(=O)[O-].[Zn+2] [Zinc acetate] | – | – | BA (%) bioavailability of zinc (fasted Wistar rats, administered to the duodenum, 10 mg/kg as zinc, dipeptide:zinc 1:1, AUC up to 7 hours vs i.v. zinc acetate 1 mg/kg): 8.6 ± 0.3%
4 | D-carnosine zinc complex | – | 6.7 ± 0.8 | –
5 | L-carnosine zinc complex | – | 11.7 ± 0.4 | –
